# Laboratory results reported in ChEMBL document CHEMBL1149412, “Novel human lipoxygenase inhibitors discovered using virtual screening with homology models” (J Med Chem, 2006).
# Test: Partition coefficient of the compound, log P
# Type: physicochemical
# Conditions: octanol/water
row,logP,Structure (SMILES)
1,5.42,Cc1cccc(C(=N)NOC(=O)c2ccc(C)cc2Cl)c1
2,4.64,Nc1sc2c(c1C(=O)Nc1cccc(Cl)c1)CCCC2
3,3.93,CCc1cc(-c2n[nH]cc2Oc2ccccc2)c(O)cc1O
